Results published in PMC5706432, “Host-guest interaction of β-cyclodextrin with isomeric ursolic acid and oleanolic acid: physicochemical characterization and molecular modeling study” (Journal of Biomedical Research, 2017).

Assay: UV-vis absorption, stability constant by modified Benesi-Hildebrand equation
Format: physicochemical
Conditions: UV absorption spectra, ethanol/water (50%, v/v), 1:1 host-guest complex assumed
Experimental: Furthermore, absorption spectra obtained with various concentrations of β-CD (0 to 1.44 mmol/L) and added to a constant drug (0.03753 mmol/L UA or 0.038715 mmol/L OA) concentration in ethanol/water (50%, v/v) were scanned by the UV spectrophotometry (Shimadzu UV-2401 visible spectrophotometer, Shimadzu Corp., Tokyo, Japan). The stability constant was calculated according to the modified Benesi-Hildebrand equation Eq. (1) assuming the formation of a 1:1 host-guest complex^[[14]^].
(1) 1/ΔA=1/KΔε[D]01/[CD]0+1/Δε[D]0 Where ΔA was the change in absorbance of drugs at λmax in the presence and absence of β-CD. [D]0 and [CD]0 were the total concentration of added drug and β-CD, respectively. Δε represented the difference in molar absorptivities between the free drug and the inclusion complex, and K was the stability constant.

| SMILES | stability constant K [L/mol] |
| --- | --- |
| C[C@H]1[C@H](C)CC[C@]2(C(=O)O)CC[C@]3(C)C(=CC[C@@H]4[C@@]5(C)CC[C@H](O)C(C)(C)[C@@H]5CC[C@]43C)[C@H]12 [UA, ursolic acid] | 5642 |
| CC1(C)CC[C@]2(C(=O)O)CC[C@]3(C)C(=CC[C@@H]4[C@@]5(C)CC[C@H](O)C(C)(C)[C@@H]5CC[C@]43C)[C@@H]2C1 [OA, oleanolic acid] | 5157 |
